Reference: patent publication US20250195530A1, “POLQ INHIBITORS” (ASTRAZENECA AB, priority 2022, published 2025)

Columns and labels:
[1] = system: DLD-1 BRCA2−/− cells; test: Homologous recombination synthetic lethal inhibition of proliferation, DLD-1 BRCA2-/- (Cell Titre Glo 3D); assay type: cell-based; settings: Homo sapiens, DLD-1, 288 h, DLD-1 BRCA2−/− cells, 12 days; read-out: POLQ PD Prolif Lumin BRCA2 −/− mean pIC50 (converted)
In short: (§1)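 Cells are seeded in RPMI 1640 (phenol red free, 10% FBS, GlutaMAX) onto pre-dosed compound (10 μM to 0.51 nM, three-fold). Plates are incubated at 37 °C, and medium plus compound are refreshed on day 6. Viability is read by CellTiter-Glo 3D at day 7 (DLD-1) or day 12 (DLD-1 BRCA2−/−), and the IC50 is fitted.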

[2] = system: DLD-1 cells; test: Inhibition of proliferation, DLD-1 BRCA2 wt control (Cell Titre Glo 3D); assay type: cell-based; settings: Homo sapiens, DLD-1, 168 h, DLD-1 BRCA2 wt cells, 7 days; read-out: POLQ PD Prolif Lumin DLD1 mean pIC50 (converted)
In short: as §1

| Compound | IC50 [2] [µM] | IC50 [1] [µM] |
| --- | --- | --- |
| CN1CCN(CCOc2cc(F)c(-c3nc4c(OC5(C)CC5)ncnc4n3Cc3ccccc3)c(F)c2)CC1 [Example H1, 9-benzyl-8-(2,6-difluoro-4-(2-(4-methylpiperazin-1-yl)ethoxy)phenyl)-6-(1-methylcyclopropoxy)-9H-purine] | 3.98 | 0.2 |
| CN1CCN(CCOc2ccc(-c3nc4c(OC5(C)CC5)ncnc4n3Cc3ccccc3)c(F)c2)CC1 [Example H2, 9-benzyl-8-(2-fluoro-4-(2-(4-methylpiperazin-1-yl)ethoxy)phenyl)-6-(1-methylcyclopropoxy)-9H-purine] | 3.16 | 0.126 |
| COc1cc(OCCN2CCN(C)CC2)ccc1-c1nc2c(OC3(C)CC3)ncnc2n1Cc1ccccc1 [Example H3, 9-benzyl-8-(2-methoxy-4-(2-(4-methylpiperazin-1-yl)ethoxy)phenyl)-6-(1-methylcyclopropoxy)-9H-purine] | 7.94 | 0.631 |
| Cc1cc(OCCN2CCN(C)CC2)cc(C)c1-c1nc2c(OC3(C)CC3)ncnc2n1Cc1ccccc1 [Example H4, 9-benzyl-8-(2,6-dimethyl-4-(2-(4-methylpiperazin-1-yl)ethoxy)phenyl)-6-(1-methylcyclopropoxy)-9H-purine] | > 10 | 0.251 |
| CN1CCN(CCOc2ccc(-c3nc4c(OC5(C)CC5)ncnc4n3Cc3ccccc3)c(F)c2F)CC1 [Example H5, 9-benzyl-8-(2,3-difluoro-4-(2-(4-methylpiperazin-1-yl)ethoxy)phenyl)-6-(1-methylcyclopropoxy)-9H-purine] | 7.94 | 0.398 |
| CN1CCN(CCOc2ccc(-c3nc4c(OC5(C)CC5)ncnc4n3Cc3ccccc3)c(Br)c2)CC1 [Example H6, 9-benzyl-8-(2-bromo-4-(2-(4-methylpiperazin-1-yl)ethoxy)phenyl)-6-(1-methylcyclopropoxy)-9H-purine] | 5.01 | 0.0631 |
| CN1CCN(CCOc2ccc(-c3nc4c(OC5(C)CC5)ncnc4n3Cc3cccnc3)c(Cl)c2)CC1 [Example H7, 8-(2-chloro-4-(2-(4-methylpiperazin-1-yl)ethoxy)phenyl)-6-(1-methylcyclopropoxy)-9-(pyridin-3-ylmethyl)-9H-purine] | 3.16 | 1 |
| CN1CCN(CCOc2ccc(-c3nc4c(OC5(C)CC5)ncnc4n3Cc3ccccc3)c(C#N)c2)CC1 [Example H8, 2-(9-benzyl-6-(1-methylcyclopropoxy)-9H-purin-8-yl)-5-(2-(4-methylpiperazin-1-yl)ethoxy)benzonitrile] | > 10 | 0.398 |
| C#Cc1cc(OCCN2CCN(C)CC2)ccc1-c1nc2c(OC3(C)CC3)ncnc2n1Cc1ccccc1 [Example H9, 9-benzyl-8-(2-ethynyl-4-(2-(4-methylpiperazin-1-yl)ethoxy)phenyl)-6-(1-methylcyclopropoxy)-9H-purine] | 3.98 | 0.501 |
| CN1CCN(CCOc2ccc(-c3nc4c(OC5(C)CC5)ncnc4n3Cc3ccccc3)c(CO)c2)CC1 [Example H10, (2-(9-benzyl-6-(1-methylcyclopropoxy)-9H-purin-8-yl)-5-(2-(4-methylpiperazin-1-yl)ethoxy)phenyl)methanol] | > 10 | 0.794 |
| CC1(Oc2ncnc3c2nc(-c2ccc(OCCC(=O)O)cc2Cl)n3Cc2ccccc2)CC1 [Example H11, 3-(4-(9-benzyl-6-(1-methylcyclopropoxy)-9H-purin-8-yl)-3-chlorophenoxy)propanoic acid] | > 10 | 1 |
| CC1(Oc2ncnc3c2nc(-c2ccc(OCCN4CCC[C@H]4C(=O)O)cc2Cl)n3Cc2ccccc2)CC1 [Example H12, (2-(4-(9-benzyl-6-(1-methylcyclopropoxy)-9H-purin-8-yl)-3-chlorophenoxy)ethyl)-L-proline] | > 10 | 1 |
| CC1(Oc2ncnc3c2nc(-c2ccc(OCCN4CCC(O)CC4)cc2Cl)n3Cc2ccccc2)CC1 [Example H15, 1-(2-(4-(9-benzyl-6-(1-methylcyclopropoxy)-9H-purin-8-yl)-3-chlorophenoxy)ethyl)piperidin-4-ol] | 1.58 | 0.0794 |
| CC1(Oc2ncnc3c2nc(-c2ccc(OCCN4CC5(CC(O)C5)C4)cc2Cl)n3Cc2ccccc2)CC1 [Example H16, 2-(2-(4-(9-benzyl-6-(1-methylcyclopropoxy)-9H-purin-8-yl)-3-chlorophenoxy)ethyl)-2-azaspiro[3.3]heptan-6-ol] | 5.01 | 0.0501 |

More lines, main results first:

| IC50 [2] [µM] | Compound | IC50 [1] [µM] |
| --- | --- | --- |
| > 10 | CC(=O)N1CC(Oc2cc(C)c(-c3nc4c(OC5(C)CC5)ncnc4n3Cc3ccccc3)cn2)C1 [Example G10, 1-(3-((5-(9-benzyl-6-(1-methylcyclopropoxy)-9H-purin-8-yl)-4-methylpyridin-2-yl)oxy)azetidin-1-yl)ethan-1-one] | 0.631 |
| 6.31 | Cc1cc(O[C@H]2CCNC2)ncc1-c1nc2c(OC3(C)CC3)ncnc2n1Cc1ccccc1 [Example G11, (S)-9-benzyl-8-(4-methyl-6-(pyrrolidin-3-yloxy)pyridin-3-yl)-6-(1-methylcyclopropoxy)-9H-purine] | 1.26 |
| > 10 | Cc1cc(OCCN(C)C)ncc1-c1nc2c(OC3(C)CC3)ncnc2n1Cc1ccccc1 [Example G12, 2-((5-(9-benzyl-6-(1-methylcyclopropoxy)-9H-purin-8-yl)-4-methylpyridin-2-yl)oxy)-N,N-dimethylethan-1-amine] | 0.316 |
| > 10 | Cc1cc(O[C@H]2CCCNC2)ncc1-c1nc2c(OC3(C)CC3)ncnc2n1Cc1ccccc1 [Example G13, (S)-9-benzyl-8-(4-methyl-6-(piperidin-3-yloxy)pyridin-3-yl)-6-(1-methylcyclopropoxy)-9H-purine] | 0.501 |
| 7.94 | Cc1c(-c2nc3c(OC4(C)CC4)ncnc3n2Cc2ccccc2)ccnc1OCCN1CCNCC1 [Example G14, 9-benzyl-8-(3-methyl-2-(2-(piperazin-1-yl)ethoxy)pyridin-4-yl)-6-(1-methylcyclopropoxy)-9H-purine] | 0.794 |
| > 10 | Cc1cc(OC[C@H]2CNCCO2)ncc1-c1nc2c(OC3(C)CC3)ncnc2n1Cc1ccccc1 [Example G15, (R)-2-(((5-(9-benzyl-6-(1-methylcyclopropoxy)-9H-purin-8-yl)-4-methylpyridin-2-yl)oxy)methyl)morpholine] | 0.398 |
| > 10 | Cc1cc(OC[C@H]2COCCN2)ncc1-c1nc2c(OC3(C)CC3)ncnc2n1Cc1ccccc1 [Example G16, (R)-3-(((5-(9-benzyl-6-(1-methylcyclopropoxy)-9H-purin-8-yl)-4-methylpyridin-2-yl)oxy)methyl)morpholine] | 0.794 |
| 3.16 | CC1(Oc2ncnc3c2nc(-c2ccc(OCCN4CC[C@@H](O)C4)cc2Cl)n3Cc2ccccc2)CC1 [Example H13, (R)-1-(2-(4-(9-benzyl-6-(1-methylcyclopropoxy)-9H-purin-8-yl)-3-chlorophenoxy)ethyl)pyrrolidin-3-ol] | 0.1 |
| 6.31 | CC1(Oc2ncnc3c2nc(-c2ccc(OCCN4CC(O)C4)cc2Cl)n3Cc2ccccc2)CC1 [Example H14, 1-(2-(4-(9-benzyl-6-(1-methylcyclopropoxy)-9H-purin-8-yl)-3-chlorophenoxy)ethyl)azetidin-3-ol] | 0.126 |
